Assay results reported in patent US20110039721A1, “METHOD FOR PREDICTION ABOUT CARCINOGENICITY OF SUBSTANCE IN RODENT” (Chemicals Evaluation and Research Institute, priority 2007, published 2011).

What was measured:
[1] = test system: mRNA expressed from the genes (A) to (D) in rat liver; assay: Behavior of genes (mRNA expression level, oligo-DNA microarray) in rat liver after 28-day oral administration; assay type: in vivo
How it was run: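 Liver mRNA levels were compared with matched vehicle groups, with a shift of at least 1.5-fold up or down deemed significant unless its direction disagreed with other carcinogens. Test substances were dosed orally by gavage daily for 28 days to 5-week-old male F344 rats, four per group.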

liver = conditions: in vivo; cited from earlier work
rodent = conditions: classification of the substance (C+/C−); cited from earlier work
[2] = classification of the substance (M+/M−); cited from earlier work
[3] = gene group (A), Unigene No. Rn.167075
[4] = gene group (C), Unigene No. Rn.120914

## O=C(OC[C@H]1O[C@@H](OC(=O)c2cc(O)c(O)c(OC(=O)c3cc(O)c(O)c(O)c3)c2)[C@H](OC(=O)c2cc(O)c(O)c(OC(=O)c3cc(O)c(O)c(O)c3)c2)[C@@H](OC(=O)c2cc(O)c(O)c(OC(=O)c3cc(O)c(O)c(O)c3)c2)[C@@H]1OC(=O)c1cc(O)c(O)c(OC(=O)c2cc(O)c(O)c(O)c2)c1)c1cc(O)c(O)c(OC(=O)c2cc(O)c(O)c(O)c2)c1 [TS052, Tannic acid]
[1]; gene group (A), Unigene No. Rn.144554
  Behavior of gene caused by administration of chemical substance, Gene No. 4846: −
[1]; [3]
  Behavior of gene caused by administration of chemical substance, Gene No. 2026: −
  Behavior of gene caused by administration of chemical substance, Gene No. 4218: −
[1]; gene group (A), Unigene No. Rn.5834
  Behavior of gene caused by administration of chemical substance, Gene No. 6182: −
[1]; gene group (A), Unigene No. Rn.9836
  Behavior of gene caused by administration of chemical substance, Gene No. 5600: −
[1]; gene group (B), Unigene No. Rn.1430
  Behavior of gene caused by administration of chemical substance, Gene No. 1494: −
[1]; gene group (B), Unigene No. Rn.19329
  Behavior of gene caused by administration of chemical substance, Gene No. 2045: −
[1]; gene group (B), Unigene No. Rn.21240
  Behavior of gene caused by administration of chemical substance, Gene No. 2203: +
[1]; gene group (C), Unigene No. Rn.106184
  Behavior of gene caused by administration of chemical substance, Gene No. 533: −
[1]; gene group (C), Unigene No. Rn.108075
  Behavior of gene caused by administration of chemical substance, Gene No. 725: −
[1]; gene group (C), Unigene No. Rn.11766
  Behavior of gene caused by administration of chemical substance, Gene No. 1163: +
[1]; gene group (C), Unigene No. Rn.118529
  Behavior of gene caused by administration of chemical substance, Gene No. 4973: −
[1]; gene group (C), Unigene No. Rn.119024
  Behavior of gene caused by administration of chemical substance, Gene No. 4095: −
[1]; [4]
  Behavior of gene caused by administration of chemical substance, Gene No. 1334: −
  Behavior of gene caused by administration of chemical substance, Gene No. 6620: −
[1]; gene group (C), Unigene No. Rn.123063
  Behavior of gene caused by administration of chemical substance, Gene No. 6303: −
[1]; gene group (C), Unigene No. Rn.143213
  Behavior of gene caused by administration of chemical substance, Gene No. 5878: −
[1]; gene group (C), Unigene No. Rn.144946
  Behavior of gene caused by administration of chemical substance, Gene No. 1131: −
[1]; gene group (C), Unigene No. Rn.14744
  Behavior of gene caused by administration of chemical substance, Gene No. 1562: −
[1]; gene group (C), Unigene No. Rn.1647
  Behavior of gene caused by administration of chemical substance, Gene No. 1741: −
[1]; gene group (C), Unigene No. Rn.164817
  Behavior of gene caused by administration of chemical substance, Gene No. 893: −
[1]; gene group (C), Unigene No. Rn.167685
  Behavior of gene caused by administration of chemical substance, Gene No. 6026: −
[1]; gene group (C), Unigene No. Rn.185941
  Behavior of gene caused by administration of chemical substance, Gene No. 154: −
[1]; gene group (C), Unigene No. Rn.18728
  Behavior of gene caused by administration of chemical substance, Gene No. 1993: −
[1]; gene group (C), Unigene No. Rn.201760
  Behavior of gene caused by administration of chemical substance, Gene No. 813: −
[1]; gene group (C), Unigene No. Rn.23969
  Behavior of gene caused by administration of chemical substance, Gene No. 2494: −
[1]; gene group (C), Unigene No. Rn.24561
  Behavior of gene caused by administration of chemical substance, Gene No. 2546: −
[1]; gene group (C), Unigene No. Rn.43232
  Behavior of gene caused by administration of chemical substance, Gene No. 3776: −
[1]; gene group (C), Unigene No. Rn.4620
  Behavior of gene caused by administration of chemical substance, Gene No. 3929: −
[1]; gene group (C), Unigene No. Rn.9757
  Behavior of gene caused by administration of chemical substance, Gene No. 1119: −
[1]; gene group (C), Unigene No. Rn.9779
  Behavior of gene caused by administration of chemical substance, Gene No. 6742: −
[1]; gene group (C), Unigene No. Rn.9862
  Behavior of gene caused by administration of chemical substance, Gene No. 5634: −
[1]; gene group (D), Unigene No. Rn.9939
  Behavior of gene caused by administration of chemical substance, Gene No. 5726: −
liver
  Liver carcinogenicity: Cr+
rodent
  Carcinogenicity: C+
[2]
  Mutagenicity by Ames test: M−
